Experimental data reported in PubChem BioAssay AID256 (DTP/NCI, 2004).
Where “and” joins values, the source holds several entries; their conditions need not be identical. Equal entries are not always repeated. Inconclusive results and toxic doses are left out. The calls were made as follows: active = survival T/C of 150% or more; inactive = T/C below 125% in these data.

System: CD2F1 mice, L1210 leukemia ip, survival T/C
Assay: NCI In Vivo Anticancer Drug Screen. Data for tumor model L1210 Leukemia (intraperitoneal) in CD2F1 (CDF1) mice
Details: higher = longer survival
Procedure, shortened: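 Vehicle-treated tumor-bearing mice served as controls (C) for compound-treated mice (T). Reported figure is T divided by C.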

[1] = endpoint: mean survival time, dose: 50.0 mg/kg/injection, schedule: Q01DX009 (ip), vehicle: saline with Tween-80
[2] = endpoint: mean survival time, dose: 100.0 mg/kg/injection, schedule: Q01DX009 (ip), vehicle: saline with Tween-80
[3] = endpoint: mean survival time, dose: 200.0 mg/kg/injection, schedule: Q01DX009 (ip), vehicle: saline with Tween-80
[4] = endpoint: mean survival time, dose: 100.0 mg/kg/injection, schedule: Q01DX001 (ip), vehicle: saline with Tween-80
[5] = endpoint: mean survival time, dose: 100.0 mg/kg/injection, schedule: Q04DX002 (ip), vehicle: saline with Tween-80
[6] = endpoint: mean survival time, dose: 100.0 mg/kg/injection, schedule: Q04DX003 (ip), vehicle: saline with Tween-80
[7] = endpoint: mean survival time, dose: 200.0 mg/kg/injection, schedule: Q01DX001 (ip), vehicle: saline with Tween-80
[8] = endpoint: mean survival time, dose: 200.0 mg/kg/injection, schedule: Q04DX002 (ip), vehicle: saline with Tween-80
[9] = endpoint: mean survival time, dose: 200.0 mg/kg/injection, schedule: Q04DX003 (ip), vehicle: saline with Tween-80
[10] = endpoint: mean survival time, dose: 100.0 mg/kg/injection, schedule: Q01DX009 (ip), vehicle: saline
[11] = endpoint: mean survival time, dose: 200.0 mg/kg/injection, schedule: Q01DX009 (ip), vehicle: saline
[12] = endpoint: mean survival time, dose: 400.0 mg/kg/injection, schedule: Q01DX009 (ip), vehicle: saline
[13] = endpoint: mean survival time, dose: 400.0 mg/kg/injection, schedule: Q04DX003 (ip), vehicle: saline with Tween-80
[14] = endpoint: mean survival time, dose: 25.0 mg/kg/injection, schedule: Q01DX009 (ip), vehicle: saline with Tween-80
[15] = endpoint: mean survival time, dose: 5.0 mg/kg/injection, schedule: Q04DX003 (ip), vehicle: saline with Tween-80
[16] = endpoint: mean survival time, dose: 10.0 mg/kg/injection, schedule: Q04DX003 (ip), vehicle: saline with Tween-80

Measured: T/C

C/C=C/CC1CCCCC1
inactive: [1] 100 % of control | [2] 100 % of control | [3] 100 % of control

CC(C)(C)c1ccc(OS(=O)(=O)c2cccc([N+](=O)[O-])c2)cc1
inactive: [2] 86 % of control | [3] 102 % of control | endpoint: mean survival time, dose: 400.0 mg/kg/injection, schedule: Q01DX009 (ip), vehicle: saline with Tween-80 94 % of control

NC(=S)Nc1ccccc1[N+](=O)[O-]
inactive: endpoint: mean survival time, dose: 50.0 mg/kg/injection, schedule: Q04DX003 (ip), vehicle: saline with Tween-80 103 % of control and 104 % of control | [4] 101 % of control | [5] 95 % of control | [6] 97 % of control and 101 % of control | [7] 102 % of control | [8] 93 % of control | [9] 97 % of control and 111 % of control

CS(=O)(=O)OCCN(CCOS(C)(=O)=O)c1ccc([N+](=O)[O-])cc1
inactive: endpoint: mean survival time, dose: 12.5 mg/kg/injection, schedule: Q01DX010 (ip), vehicle: saline 100 % of control | endpoint: mean survival time, dose: 25.0 mg/kg/injection, schedule: Q01DX010 (ip), vehicle: saline 100 % of control | endpoint: mean survival time, dose: 50.0 mg/kg/injection, schedule: Q01DX010 (ip), vehicle: saline 115 % of control | endpoint: mean survival time, dose: 100.0 mg/kg/injection, schedule: Q01DX010 (ip), vehicle: saline 106 % of control

CCOC(=O)CCN(CC)CC
inactive: [10] 106 % of control | [11] 97 % of control | [12] 97 % of control

O=Cc1ccccc1
inactive: endpoint: mean survival time, dose: 12.5 mg/kg/injection, schedule: Q01DX009 (ip), vehicle: Klucel (hydroxypropylcellulose) (HPC) 101 % of control | endpoint: mean survival time, dose: 25.0 mg/kg/injection, schedule: Q01DX009 (ip), vehicle: Klucel (hydroxypropylcellulose) (HPC) 95 % of control and 102 % of control | endpoint: mean survival time, dose: 50.0 mg/kg/injection, schedule: Q01DX009 (ip), vehicle: Klucel (hydroxypropylcellulose) (HPC) 96 % of control and 100 % of control | endpoint: mean survival time, dose: 100.0 mg/kg/injection, schedule: Q01DX009 (ip), vehicle: Klucel (hydroxypropylcellulose) (HPC) 97 % of control and 102 % of control | endpoint: mean survival time, dose: 200.0 mg/kg/injection, schedule: Q01DX009 (ip), vehicle: Klucel (hydroxypropylcellulose) (HPC) 97 % of control and 105 % of control | endpoint: mean survival time, dose: 400.0 mg/kg/injection, schedule: Q01DX009 (ip), vehicle: Klucel (hydroxypropylcellulose) (HPC) 92 % of control and 93 % of control

CN(C)C1(Cc2ccccc2)c2ccccc2-c2ccc(Br)cc21 (stereo not given)
inactive: [6] 89 % of control | [9] 87 % of control

O=[N+]([O-])c1ccccc1SSc1ccccc1[N+](=O)[O-]
inactive: [6] 97 % of control | [9] 95 % of control | [13] 104 % of control

O=C1CNC(c2ccccc2)C(c2ccccc2)N1 (stereo not given)
inactive: [6] 100 % of control | [9] 102 % of control | [13] 101 % of control

CN(C)CCOc1ccc2c(c1)C/C(=C/c1ncc([N+](=O)[O-])n1C)C2=O
inactive: endpoint: mean survival time, dose: 6.25 mg/kg/injection, schedule: Q01DX009 (ip), vehicle: saline with Tween-80 96 % of control and 98 % of control | endpoint: mean survival time, dose: 12.5 mg/kg/injection, schedule: Q01DX009 (ip), vehicle: saline with Tween-80 107 % of control | [14] 107 % of control and 108 % of control | [1] 117 % of control and 107 % of control | [2] 119 % of control and 104 % of control | [3] 111 % of control

CC1(C)CSC(=S)N1
inactive: endpoint: mean survival time, dose: 2.5 mg/kg/injection, schedule: Q01DX009 (ip), vehicle: saline with Tween-80 98 % of control | endpoint: mean survival time, dose: 5.0 mg/kg/injection, schedule: Q01DX009 (ip), vehicle: saline with Tween-80 95 % of control | [15] 103 % of control | endpoint: mean survival time, dose: 10.0 mg/kg/injection, schedule: Q01DX009 (ip), vehicle: saline with Tween-80 107 % of control | [16] 92 % of control

O=C1CCCN1C1CC2c3ccccc3C1c1cccc[n+]12 (stereo not given)
inactive: [15] 95 % of control | [16] 95 % of control | endpoint: mean survival time, dose: 20.0 mg/kg/injection, schedule: Q04DX003 (ip), vehicle: saline with Tween-80 97 % of control

CCN(CC)C(=O)c1cc[n+](Cc2ccc(Cl)c(Cl)c2)cc1
inactive: [1] 102 % of control | [2] 105 % of control | [6] 100 % of control | [9] 102 % of control

OCC1OC(Oc2ccc(O)cc2)C(O)C(O)C1O (stereo not given)
inactive: endpoint: mean survival time, dose: 50.0 mg/kg/injection, schedule: Q01DX009 (ip), vehicle: saline 103 % of control | endpoint: mean survival time, dose: 100.0 mg/kg/injection, schedule: Q01DX001 (ip), vehicle: saline 101 % of control | [10] 103 % of control | endpoint: mean survival time, dose: 200.0 mg/kg/injection, schedule: Q01DX001 (ip), vehicle: saline 117 % of control | [11] 95 % of control | endpoint: mean survival time, dose: 400.0 mg/kg/injection, schedule: Q01DX001 (ip), vehicle: saline 101 % of control | [12] 100 % of control

CN(Cc1cnc2nc(N)nc(N)c2c1)c1ccc(C(=O)NC(CCC(=O)O)C(=O)O)cc1 (stereo not given)
active: endpoint: median survival time, dose: 4.0 mg/kg/injection, schedule: Q01DX005 (ip), vehicle: other 158 % of control | endpoint: median survival time, dose: 8.0 mg/kg/injection, schedule: Q01DX005 (ip), vehicle: other 158 % of control

CC([NH-])CC(C)[NH-].O=[N+]([O-])O.O=[N+]([O-])O.[Pt+2] (stereo not given)
active: endpoint: mean survival time, dose: 6.25 mg/kg/injection, schedule: Q04DX003 (ip), vehicle: saline 154 % of control | endpoint: mean survival time, dose: 12.5 mg/kg/injection, schedule: Q04DX003 (ip), vehicle: saline 247 % of control | endpoint: mean survival time, dose: 25.0 mg/kg/injection, schedule: Q04DX003 (ip), vehicle: saline 207 % of control

CC1C2C=CC(C2)C1C(=O)O (stereo not given)
inactive: [1] 93 % of control | [2] 96 % of control and 98 % of control | [3] 100 % of control and 87 % of control

O=S(=O)(c1ccc(Cl)cc1)c1ccc(Cl)cc1
inactive: endpoint: mean survival time, dose: 100.0 mg/kg/injection, schedule: Q01DX001 (ip), vehicle: Klucel (hydroxypropylcellulose) (HPC) 93 % of control | endpoint: mean survival time, dose: 200.0 mg/kg/injection, schedule: Q01DX001 (ip), vehicle: Klucel (hydroxypropylcellulose) (HPC) 90 % of control | endpoint: mean survival time, dose: 400.0 mg/kg/injection, schedule: Q01DX001 (ip), vehicle: Klucel (hydroxypropylcellulose) (HPC) 96 % of control

NCC(O)O.NCC(O)O.NCC(O)O.NCC(O)O.[Mo].[Mo]
inactive: [4] 93 % of control | [7] 89 % of control | endpoint: mean survival time, dose: 400.0 mg/kg/injection, schedule: Q01DX001 (ip), vehicle: saline with Tween-80 104 % of control

CCNCc1ccc2c(c1)OCO2
inactive: endpoint: mean survival time, dose: 75.0 mg/kg/injection, schedule: Q01DX001 (ip), vehicle: saline 101 % of control | endpoint: mean survival time, dose: 150.0 mg/kg/injection, schedule: Q01DX001 (ip), vehicle: saline 101 % of control | endpoint: mean survival time, dose: 300.0 mg/kg/injection, schedule: Q01DX001 (ip), vehicle: saline 103 % of control

CCCCCCCCCCCCCCCCCCCCc1ccccc1
inactive: endpoint: mean survival time, dose: 100.0 mg/kg/injection, schedule: Q04DX002 (ip), vehicle: Klucel (hydroxypropylcellulose) (HPC) 97 % of control | endpoint: mean survival time, dose: 200.0 mg/kg/injection, schedule: Q04DX002 (ip), vehicle: Klucel (hydroxypropylcellulose) (HPC) 94 % of control | endpoint: mean survival time, dose: 400.0 mg/kg/injection, schedule: Q04DX002 (ip), vehicle: Klucel (hydroxypropylcellulose) (HPC) 90 % of control

Cn1c(=O)c2[nH]c(NCc3ccccc3)nc2n(C)c1=O
inactive: endpoint: mean survival time, dose: 12.5 mg/kg/injection, schedule: Q01DX005 (ip), vehicle: distilled water + Tween-80 93 % of control | endpoint: mean survival time, dose: 25.0 mg/kg/injection, schedule: Q01DX005 (ip), vehicle: distilled water + Tween-80 90 % of control | endpoint: mean survival time, dose: 50.0 mg/kg/injection, schedule: Q01DX005 (ip), vehicle: distilled water + Tween-80 90 % of control | endpoint: mean survival time, dose: 100.0 mg/kg/injection, schedule: Q01DX005 (ip), vehicle: distilled water + Tween-80 94 % of control | endpoint: mean survival time, dose: 200.0 mg/kg/injection, schedule: Q01DX005 (ip), vehicle: distilled water + Tween-80 90 % of control

Cc1ccc(N2CCN(CCCCCC(=O)O)CC2)cc1Cl
inactive: [6] 106 % of control | endpoint: mean survival time, dose: 176.0 mg/kg/injection, schedule: Q04DX003 (ip), vehicle: saline with Tween-80 117 % of control | [9] 104 % of control | endpoint: mean survival time, dose: 264.0 mg/kg/injection, schedule: Q04DX003 (ip), vehicle: saline with Tween-80 113 % of control

COc1ccc(NC(=O)Oc2ccc(C3CCCCC3)cc2)cc1
inactive: [14] 97 % of control | endpoint: mean survival time, dose: 25.0 mg/kg/injection, schedule: Q04DX002 (ip), vehicle: saline with Tween-80 104 % of control | [1] 93 % of control | endpoint: mean survival time, dose: 50.0 mg/kg/injection, schedule: Q04DX002 (ip), vehicle: saline with Tween-80 104 % of control | [2] 89 % of control | [5] 101 % of control | [8] 108 % of control
